# According to US20230374015A1, “INHIBITORS OF FIBROBLAST GROWTH FACTOR RECEPTOR KINASES” (Kinnate Biopharma Inc., priority 2020, published 2023):
# Target: T1, FGFR2 (Homo sapiens, UniProt P21802)
# Test: FGFR2 Kinase Protocol - Condition 1 (Reaction Biology HotSpot radiometric kinase assay)
# Format: biochemical
# Details: 20-min incubation of compound with kinase before ATP; poly[Glu:Tyr] (4:1) 0.2 mg/ml; ATP 100 micromolar; 2 hr room temperature
# Experimental: Example 1: FGFR2 Kinase Protocol—Condition 1
# The Reaction Biology HotSpot assay platform (http://www.reactionbiology.com) was used to measure kinase/inhibitor interactions as described previously (Anastassiadis et al., 2011). In brief, for each reaction, kinase and substrate were mixed in a buffer containing 20 mM HEPES (pH 7.5), 10 mM MgCl2, 1 mM EGTA, 0.02% Brij35, 0.02 mg/mL BSA, 0.1 mM Na3VO4, 2 mM DTT, and 1% DMSO. All compounds were in powder form and freshly solubilized in DMSO for assays. Compounds were then added to each reaction mixture via acoustic dispense using an ECHO 550 nanoliter dispenser. For Human FGFR2 wildtype testing, a peptide substrate, poly[Glu:Tyr] (4:1) was used to promote the reaction at a concentration of 0.2 mg/ml. For Human FGFR2 (V564F) testing, a peptide substrate, poly[Glu:Tyr] (4:1) was used to promote the reaction at a concentration of 0.2 mg/ml. ATP concentration for all assays was maintained at 100 micromolar. Compounds were tested in 10-dose IC50 mode with a 3-fold serial dilution. After a 20-min incubation, ATP (Sigma-Aldrich, St. Louis, MO 63178) and [g33P] ATP (specific activity 10 microCi/microliter) purchased at PerkinElmer (Boston, MA, 02118 Cat #BLU 003H250UC) were added at a final total concentration of […]. Reactions were carried out at room temperature for 2 hr and spotted onto P81 ion exchange cellulose chromatography paper (Reaction Biology). Filter paper was washed in 0.75% phosphoric acid to remove unincorporated ATP. The percent remaining kinase activity relative to a vehicle-containing (DMSO) kinase reaction was calculated for each kinase/inhibitor pair. IC50 values were calculated using Dotmatics Knowledge Solutions Studies curve fitting (Dotmatics, Bishops Stortford, UK, CM23).
# T1 sequence (P21802 22-821): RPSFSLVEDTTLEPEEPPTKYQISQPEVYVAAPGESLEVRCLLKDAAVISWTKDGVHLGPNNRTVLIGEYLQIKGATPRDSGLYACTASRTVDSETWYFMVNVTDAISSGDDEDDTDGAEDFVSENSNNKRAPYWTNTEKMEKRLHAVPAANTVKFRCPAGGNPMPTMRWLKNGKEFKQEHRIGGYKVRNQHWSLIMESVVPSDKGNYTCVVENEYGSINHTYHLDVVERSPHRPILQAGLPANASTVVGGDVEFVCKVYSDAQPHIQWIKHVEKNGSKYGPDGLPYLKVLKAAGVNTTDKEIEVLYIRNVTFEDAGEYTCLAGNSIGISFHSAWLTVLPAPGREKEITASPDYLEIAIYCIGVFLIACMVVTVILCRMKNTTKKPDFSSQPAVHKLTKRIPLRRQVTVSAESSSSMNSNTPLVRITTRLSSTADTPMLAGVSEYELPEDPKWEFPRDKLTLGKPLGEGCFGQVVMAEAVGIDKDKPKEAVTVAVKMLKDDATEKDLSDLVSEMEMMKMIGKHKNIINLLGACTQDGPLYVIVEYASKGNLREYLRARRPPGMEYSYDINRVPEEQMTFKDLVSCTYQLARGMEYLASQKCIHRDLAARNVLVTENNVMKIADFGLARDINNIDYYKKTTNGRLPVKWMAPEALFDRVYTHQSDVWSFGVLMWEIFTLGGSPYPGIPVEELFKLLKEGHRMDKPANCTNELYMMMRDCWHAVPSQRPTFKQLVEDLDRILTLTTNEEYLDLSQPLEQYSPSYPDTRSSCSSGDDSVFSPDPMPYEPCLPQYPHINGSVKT
row,IC50 [nM],Compound
1,≤ 100,"C=CC(=O)N1C[C@@H](n2nc(C#Cc3ccc4[nH]c(C)nc4c3)c3c(N)ncnc32)C[C@@H]1COC [Example 1, 1-((2R,4S)-4-(4-amino-3-((2-methyl-1H-benzo[d]imidazol-5-yl)ethynyl)-1H-pyrazolo[3,4-d]pyrimidin-1-yl)-2-(methoxymethyl)pyrrolidin-1-yl)prop-2-en-1-one]"
2,≤ 100,"C=CC(=O)N1C[C@@H](n2nc(C#Cc3ccc4[nH]ncc4c3)c3c(N)ncnc32)C[C@@H]1COC [Example 2, 1-((2R,4S)-4-(3-((1H-indazol-5-yl)ethynyl)-4-amino-1H-pyrazolo[3,4-d]pyrimidin-1-yl)-2-(methoxymethyl)pyrrolidin-1-yl)prop-2-en-1-one]"
3,≤ 100,"C=CC(=O)N1C[C@@H](n2nc(C#Cc3ccc4nc(C)n(C)c4c3)c3c(N)ncnc32)C[C@@H]1COC [Example 4, 1-((2R,4S)-4-(4-amino-3-((1,2-dimethyl-1H-benzo[d]imidazol-6-yl)ethynyl)-1H-pyrazolo[3,4-d]pyrimidin-1-yl)-2-(methoxymethyl)pyrrolidin-1-yl)prop-2-en-1-one]"
4,≤ 100,"C=CC(=O)N1C[C@@H](n2nc(C#Cc3ccc4[nH]cnc4c3)c3c(N)ncnc32)C[C@@H]1COC [Example 5, 1-((2R,4S)-4-(3-((1H-benzo[d]imidazol-5-yl)ethynyl)-4-amino-1H-pyrazolo[3,4-d]pyrimidin-1-yl)-2-(methoxymethyl)pyrrolidin-1-yl)prop-2-en-1-one]"
5,≤ 100,"C=CC(=O)N1C[C@@H](n2nc(C#Cc3ccc4c(c3)ncn4C)c3c(N)ncnc32)C[C@@H]1COC [Example 6, 1-((2R,4S)-4-(4-amino-3-((1-methyl-1H-benzo[d]imidazol-5-yl)ethynyl)-1H-pyrazolo[3,4-d]pyrimidin-1-yl)-2-(methoxymethyl)pyrrolidin-1-yl)prop-2-en-1-one]"
6,≤ 100,"C=CC(=O)N1CC[C@H](n2nc(C#Cc3ccc4[nH]c(C)nc4c3)c3c(N)ncnc32)C1 [Example 7, (S)-1-(3-(4-amino-3-((2-methyl-1H-benzo[d]imidazol-5-yl)ethynyl)-1H-pyrazolo[3,4-d]pyrimidin-1-yl)pyrrolidin-1-yl)prop-2-en-1-one]"
7,≤ 100,"C=CC(=O)N1C[C@@H](n2cc(C#Cc3ccc4nc(C)[nH]c4c3)c3c(N)ncnc32)C[C@@H]1COC [Example 8, 1-[(2R,4S)-4-[4-amino-5-[2-(2-methyl-3H-1,3-benzodiazol-5-yl)ethynyl]pyrrolo[2,3-d]pyrimidin-7-yl]-2-(methoxymethyl)pyrrolidin-1-yl]prop-2-en-1-one]"
8,100 to 1000,"C=CC(=O)N1C[C@@H](n2nc(C#Cc3ccc4ncn(C)c4c3)c3c(N)ncnc32)C[C@@H]1COC [Example 9, 1-((2R,4S)-4-(4-amino-3-((1-methyl-1H-benzo[d]imidazol-6-yl)ethynyl)-1H-pyrazolo[3,4-d]pyrimidin-1-yl)-2-(methoxymethyl)pyrrolidin-1-yl)prop-2-en-1-one]"
9,≤ 100,"C=CC(=O)N1C[C@@H](n2nc(C#Cc3ccc4[nH]nnc4c3)c3c(N)ncnc32)C[C@@H]1COC [Example 10, 1-((2R,4S)-4-(3-((1H-benzo[d][1,2,3]triazol-5-yl)ethynyl)-4-amino-1H-pyrazolo[3,4-d]pyrimidin-1-yl)-2-(methoxymethyl)pyrrolidin-1-yl)prop-2-en-1-one]"
10,≤ 100,"C=CC(=O)N1CC[C@H](n2cc(C#Cc3ccc4[nH]c(C)nc4c3)c3c(N)ncnc32)C1 [Example 11, (S)-1-(3-(4-amino-5-((2-methyl-1H-benzo[d]imidazol-5-yl)ethynyl)-7H-pyrrolo[2,3-d]pyrimidin-7-yl)pyrrolidin-1-yl)prop-2-en-1-one]"
11,≤ 100,"C=CC(=O)N1C[C@@H](n2nc(C#Cc3c(F)cc4nc(C)n(C)c4c3F)c3c(N)ncnc32)C[C@@H]1COC [Example 13, 1-((2R,4S)-4-(4-amino-3-((5,7-difluoro-1,2-dimethyl-1H-benzo[d]imidazol-6-yl)ethynyl)-1H-pyrazolo[3,4-d]pyrimidin-1-yl)-2-(methoxymethyl)pyrrolidin-1-yl)prop-2-en-1-one]"
12,≤ 100,"C=CC(=O)N1C[C@@H](n2nc(C#Cc3ccc4cn[nH]c4c3)c3c(N)ncnc32)C[C@@H]1COC [Example 14, 1-((2R,4S)-4-(3-((1H-indazol-6-yl)ethynyl)-4-amino-1H-pyrazolo[3,4-d]pyrimidin-1-yl)-2-(methoxymethyl)pyrrolidin-1-yl)prop-2-en-1-one]"
13,≤ 100,"C=CC(=O)N1C[C@@H](n2nc(C#Cc3ccc4c(c3)nc(C)n4C3CC3)c3c(N)ncnc32)C[C@@H]1COC [Example 15, 1-((2R,4S)-4-(4-amino-3-((1-cyclopropyl-2-methyl-1H-benzo[d]imidazol-5-yl)ethynyl)-1H-pyrazolo[3,4-d]pyrimidin-1-yl)-2-(methoxymethyl)pyrrolidin-1-yl)prop-2-en-1-one]"
14,≤ 100,"C=CC(=O)N1C[C@@H](n2nc(C#Cc3ccc4c(c3)nc(C)n4C3CC3)c3c(N)nccc32)C[C@@H]1COC [Example 17, 1-((2R,4S)-4-(4-amino-3-((1-cyclopropyl-2-methyl-1H-benzo[d]imidazol-5-yl)ethynyl)-1H-pyrazolo[4,3-c]pyridin-1-yl)-2-(methoxymethyl)pyrrolidin-1-yl)prop-2-en-1-one]"
15,≤ 100,"C=CC(=O)N1C[C@@H](n2nc(C#Cc3c(F)cc4nc(C)[nH]c4c3F)c3c(N)nccc32)C[C@@H]1COC [Example 18, 1-((2R,4S)-4-(4-amino-3-((5,7-difluoro-2-methyl-1H-benzo[d]imidazol-6-yl)ethynyl)-1H-pyrazolo[4,3-c]pyridin-1-yl)-2-(methoxymethyl)pyrrolidin-1-yl)prop-2-en-1-one]"
16,≤ 100,"C=CC(=O)N1C[C@@H](n2nc(C#Cc3ccc4c(c3)ncn4C)c3c(N)nccc32)C[C@@H]1COC [Example 19, 1-((2R,4S)-4-(4-amino-3-((1-methyl-1H-benzo[d]imidazol-5-yl)ethynyl)-1H-pyrazolo[4,3-c]pyridin-1-yl)-2-(methoxymethyl)pyrrolidin-1-yl)prop-2-en-1-one]"
17,≤ 100,"C=CC(=O)N1C[C@@H](n2nc(C#Cc3ccc4c(c3)nc(C)n4CC)c3c(N)ncnc32)C[C@@H]1COC [Example 20, 1-((2R,4S)-4-(4-amino-3-((1-ethyl-2-methyl-1H-benzo[d]imidazol-5-yl)ethynyl)-1H-pyrazolo[3,4-d]pyrimidin-1-yl)-2-(methoxymethyl)pyrrolidin-1-yl)prop-2-en-1-one]"
18,≤ 100,"C=CC(=O)N1C[C@@H](n2nc(C#Cc3ccc4c(c3)nc(C)n4CC)c3c(N)nccc32)C[C@@H]1COC [Example 21, 1-((2R,4S)-4-(4-amino-3-((1-ethyl-2-methyl-1H-benzo[d]imidazol-5-yl)ethynyl)-1H-pyrazolo[4,3-c]pyridin-1-yl)-2-(methoxymethyl)pyrrolidin-1-yl)prop-2-en-1-one]"
19,≤ 100,"C=CC(=O)N1C[C@@H](n2nc(C#Cc3ccc4[nH]c(C)nc4c3)c3c(N)nccc32)C[C@@H]1COC [Example 22, 1-((2R,4S)-4-(4-amino-3-((2-methyl-1H-benzo[d]imidazol-5-yl)ethynyl)-1H-pyrazolo[4,3-c]pyridin-1-yl)-2-(methoxymethyl)pyrrolidin-1-yl)prop-2-en-1-one]"
20,≤ 100,"C=CC(=O)N1C[C@@H](n2nc(C#Cc3ccc4c(c3)ncn4CC)c3c(N)nccc32)C[C@@H]1COC [Example 23, 1-((2R,4S)-4-(4-amino-3-((1-ethyl-1H-benzo[d]imidazol-5-yl)ethynyl)-1H-pyrazolo[4,3-c]pyridin-1-yl)-2-(methoxymethyl)pyrrolidin-1-yl)prop-2-en-1-one]"
21,≤ 100,"C=CC(=O)N1C[C@@H](n2nc(C#Cc3ccc4c(c3)ncn4C3CC3)c3c(N)nccc32)C[C@@H]1COC [Example 24, 1-((2R,4S)-4-(4-amino-3-((1-cyclopropyl-1H-benzo[d]imidazol-5-yl)ethynyl)-1H-pyrazolo[4,3-c]pyridin-1-yl)-2-(methoxymethyl)pyrrolidin-1-yl)prop-2-en-1-one]"

# Target: T1, FGFR2
# Test: FGFR2 Kinase Protocol - Condition 2 (Reaction Biology HotSpot radiometric kinase assay, no preincubation)
# Format: biochemical
# Details: poly[Glu:Tyr] (4:1) 0.2 mg/ml, ATP 100 microM, 2 hr room temperature
# In short: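 Ten-point, 3-fold compound dilutions were tested against wildtype or V564F FGFR2 with 100 µM ATP (33P-labelled), no preincubation, and 0.2 mg/ml poly[Glu:Tyr] (4:1) substrate. After 2 hr at room temperature, incorporation was read on P81 filter paper; IC50 fitted from activity remaining relative to vehicle.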
row,IC50 [nM],Compound
1,≤ 100,"C=CC(=O)N1C[C@@H](c2nc(C#Cc3cc4ncn(C5CC5)c4cc3F)c3c(N)nccn23)C[C@@H]1COC [Example 203, 1-[(2R,4S)-4-{8-Amino-1-[2-(1-cyclopropyl-6-fluoro-1,3-benzodiazol-5-yl)ethynyl]imidazo[1,5-a]pyrazin-3-yl}-2-(methoxymethyl)pyrrolidin-1-yl]prop-2-en-1-one]"
